Reference: publication PMC9784969, “SARS-CoV-2 Inhibitors Identified by Phenotypic Analysis of a Collection of Viral RNA-Binding Molecules” (Pharmaceuticals, 2022)
Like-named read-outs stand apart in the source and are kept apart here.

What was measured:
SCoV2 RNA elements = test: ligand-based 1H NMR (1D, CPMG, wLOGSY), six RNA elements compared; format: binding, SARS-CoV-2; details: CSP, LB, CPMG and wLOGSY perturbations; 300 µM compound
From the text: We first used ligand-based ^1H NMR experiments to analyze the interaction of the selected compounds with each of the six RNA elements specified above, including one-dimensional, Carr–Purcell–Meiboom–Gill (CPMG) and waterLOGSY (wLOGSY) experiments. These assays detect changes in the ^1H signals of the ligand upon RNA association (Figure 4A), and have been successfully used to evaluate small-molecule binding to RNA motifs, including elements of the SCoV2 genome.
Each ligand (at a concentration of 300 μM) was mixed with a smaller quantity of RNA in an aqueous solution containing 25 mM potassium phosphate (pH 6.2), 150 mM KCl, 3 mM MgCl2, and 10% D2O. RNA–ligand molar ratios of 1:50 and 1:100 were explored (with 6 and 3 μM RNA, respectively). […] The water signal was suppressed from one-dimensional experiments with a watergate sequence. The CPMG experiments were acquired with 100, 200, 300, and 400 ms relaxation delays before acquisition, and water suppression was achieved by presaturation. wLOGSY experiments employed a selective Gaussian 180° pulse at the water frequency and an NOE mixing time of 1.5 s and suppressed the water signal by excitation sculpting. All spectra were acquired in the absence and presence of RNA.
All ligand signals were individually analyzed. For clomiphene citrate, the signals corresponding to cis and trans forms were identified by comparing the spectrum of clomiphene citrate with those of the individual stereoisomers. In CPMG experiments, the binding of the compounds to the different RNA sequences was quantified as 100 minus the percentage of ligand signal area in the +RNA CPMG spectrum relative to the corresponding signal area in the -RNA CPMG spectrum. In wLOGSY experiments, binding was quantified with the LOGSY factor, or % of ligand signal in the difference spectrum between the +RNA and –RNA wLOGSY spectra, relative to the corresponding signal in the one-dimensional -RNA reference spectrum. In one-dimensional experiments, line broadening (LB) was quantified as explained for CPMG spectra.

SARS-CoV-2 USA-WA1/2020 = test: microbe, parasite or virus in culture; format: cell-based; details: Severe acute respiratory syndrome coronavirus 2, 48 h; 293T-ACE2 cells, MOI 0.25, two days; read-out: SARS-CoV-2 EC50
SCoV2 USA-WA1/2020 = format: cell-based; details: for nucleocapsid protein expression: 293T-ACE2, MOI 2, 8-h single cycle, added at +2 h relative to infection
3_S2m-23fl RNA hairpin = test: fluorescence intensity binding assay; parameters: species or system SARS-CoV-2
Protocol: The 3_S2m-23fl RNA oligonucleotide used in fluorescence intensity experiments was purchased HPLC-purified from Integrated DNA Technologies (Coralville, IA, USA). […] The mixture of tRNAs from E. coli MRE 600 (identified as tRNA^mix) used to evaluate specificity was obtained from Roche (Basel, Switzerland).
3_S2m-23fl (at 100 nM concentration) was snap-cooled in a buffer containing sodium phosphate pH 6.6, 0 or 150 mM NaCl, and 0.1 mM EDTA and incubated with increasing amounts of compound. The specificity of the RNA–ligand interactions was evaluated by repeating the assays in the presence of a 100-fold molar excess (10 μM) of tRNA^mix. The equilibrium dissociation constants Kd were obtained by fitting the dose–response curves to a two-state binding model [41] with Prism software (GraphPad Software, San Diego, CA, USA). All fluorescence binding assays were carried out three times for each molecule and condition.

PRF RNA = test: ligand-based 1H NMR (1D, CPMG, wLOGSY); format: binding, SARS-CoV-2
SARS-CoV-2 = format: cell-based; details: 48 h post-infection
in vitro = details: African green monkey, uninfected Vero E6 cells
[1] = system: subdomain IIa of the internal ribosome entry site (IRES) RNA of HCV; parameters: method as in earlier work; details: ref 6 (Table S1 list: Martín-Villamil et al. 2022); cited from earlier work
HIV-1 = details: ref 3 (Table S1 list: Simba-Lahuasi et al., Unpublished results); cited from earlier work
[2] = system: subdomain IIB of the rev recognition element (RRE) of the HIV-1 genomic RNA; details: ref 3 (Table S1 list: Simba-Lahuasi et al., Unpublished results); cited from earlier work
Vero E6 cells = details: read-out: SARS-CoV-2 CC50, uninfected, MTT
5_SL2+3 RNA = test: RNA-based 1H NMR (TOCSY) titration; format: binding, SARS-CoV-2; details: RNA:ligand up to 1:4
[3] = 0 mM NaCl, pH 6.6, 25 °C, read-out: Kd
[4] = average of aliphatic protons, RNA:ligand 1:100 (clomiphene) or 1:50 (trim, qz2)
[5] = average of aromatic protons, RNA:ligand 1:100 (clomiphene) or 1:50 (trim, qz2)

## CC(C)CCN1CCC(CNc2nc3ccccc3c(=O)[nH]2)CC1 [qz2]
SCoV2 RNA elements
  RNA binding preference: bound to the ORF7b element only
SARS-CoV-2 USA-WA1/2020
  EC50: 0.12 µM
SCoV2 USA-WA1/2020
  nucleocapsid protein expression: strongly inhibited
SCoV2 USA-WA1/2020; 293T-ACE2, MOI 2, relative to infection
  time of addition with maximum inhibition: -2 h
3_S2m-23fl RNA hairpin; [3]
  Kd: 26.7 µM
PRF RNA; [4]
  CPMG variation: -10.71%
  LB: -3.21%
  LOGSY factor: 3.74%
PRF RNA; [5]
  CPMG variation: 13.0%
  LB: -0.27%
  LOGSY factor: 22.5%
PRF RNA; qz2 peak A, RNA:ligand 1:50
  CPMG variation: -12.9%
  LB: -3.66%
  LOGSY factor: 3.10%
PRF RNA; qz2 peak C/D, RNA:ligand 1:50
  CPMG variation: -17.7%
  LB: -8.83%
  LOGSY factor: 7.49%
PRF RNA; qz2 peak E/B, RNA:ligand 1:50
  CPMG variation: -18.2%
  LB: 3.04%
  LOGSY factor: 2.11%
PRF RNA; qz2 peak F, RNA:ligand 1:50
  CPMG variation: -0.60%
  LB: -8.91%
  LOGSY factor: 3.69%
PRF RNA; qz2 peak G, RNA:ligand 1:50
  CPMG variation: -7.24%
  LB: 1.78%
  LOGSY factor: 2.32%
PRF RNA; qz2 peak I, RNA:ligand 1:50
  CPMG variation: 13.2%
  LB: -0.20%
  LOGSY factor: 13.3%
PRF RNA; qz2 peak J, RNA:ligand 1:50
  CPMG variation: 11.4%
  LB: -1.72%
  LOGSY factor: 42.7%
PRF RNA; qz2 peak K, RNA:ligand 1:50
  CPMG variation: 14.6%
  LB: 1.11%
  LOGSY factor: 11.4%
SARS-CoV-2
  viral titers in supernatants (TCID50): below the limit of detection
In vitro
  CC50 at 2 days: > 20 µM
[1]
  Previous target RNA binding: yes

## NCCCc1cn(C(c2ccccc2)(c2ccccc2)c2ccccc2)cn1 [trim]
SCoV2 RNA elements
  RNA binding preference: bound with enhanced affinity to the 5_SL2+3 and 3_S2m molecules
SARS-CoV-2 USA-WA1/2020
  EC50: 0.33 µM
SCoV2 USA-WA1/2020
  nucleocapsid protein expression: strongly inhibited
3_S2m-23fl RNA hairpin; [3]
  Kd: 19.3 µM
3_S2m-23fl RNA hairpin; 150 mM NaCl, 100-fold molar excess of tRNA, read-out: Kd-tRNA
  Kd: 8.97 µM
3_S2m-23fl RNA hairpin; 150 mM NaCl, pH 6.6, 25 °C, no tRNA, read-out: Kd
  Kd: 12.5 µM
HIV-1
  Previous target virus activity: yes
[2]
  Previous target RNA binding: yes
PRF RNA; [4]
  CPMG variation: 14.0%
  LB: 13.9%
  LOGSY factor: 29.0%
PRF RNA; [5]
  CPMG variation: 15.5%
  LB: -22.5%
  LOGSY factor: 50.5%
PRF RNA; trim peak A, RNA:ligand 1:50
  CPMG variation: 13.0%
  LB: 20.1%
  LOGSY factor: 37.0%
PRF RNA; trim peak B, RNA:ligand 1:50
  CPMG variation: 18.9%
  LB: 10.8%
  LOGSY factor: 21.0%
PRF RNA; trim peak C, RNA:ligand 1:50
  CPMG variation: 9.72%
  LB: -39.2%
  LOGSY factor: 16.7%
PRF RNA; trim peak D, RNA:ligand 1:50
  CPMG variation: 19.7%
  LB: 3.93%
  LOGSY factor: 46.0%
PRF RNA; trim peak E, RNA:ligand 1:50
  CPMG variation: 12.5%
  LB: -58.9%
  LOGSY factor: 88.8%
SARS-CoV-2
  viral titers in supernatants (TCID50): below the limit of detection
Vero E6 cells
  CC50: > 89.8 µM
In vitro
  CC50 at 2 days: > 90 µM
5_SL2+3 RNA
  TOCSY perturbations: larger variations than clomiphene or qz2
